# Laboratory results: publication PMC5146859, “Phase 1/2 study of pacritinib, a next generation JAK2/FLT3 inhibitor, in myelofibrosis or other myeloid malignancies” (Journal of Hematology & Oncology, 2016)
# Entries after “also recorded” stand apart in the source; their conditions may differ.
# Test system: patients with advanced myeloid malignancies
# Test: Phase 1 safety: adverse events (NCIC-CTCAE version 3.0)
# Type: in vivo, human
# Protocol: At screening/baseline, patients underwent a medical history, physical examination, vital sign assessment, ECOG PS assessment, electrocardiogram, and assessment of hematologic parameters and blood chemistry. Hematology/blood chemistry, physical examinations, and vital sign assessments were performed throughout treatment. Toxicity was assessed using the National Cancer Institute Common Terminology Criteria for Adverse Events (NCIC-CTCAE), version 3.0, with relationship to treatment assigned by the investigator and were recorded from the first dose of pacritinib until 30 days after the last dose. Bone marrow biopsy and/or aspirate samples were drawn at baseline, on day 1 of cycle 4 and cycle 10, as clinically indicated, and at the termination visit. Disease response and progression were determined using the relevant International Working Group (IWG) criteria.
# The efficacy-evaluable population included those patients with a baseline and corresponding follow-up value. The safety population included all enrolled patients who received ≥1 dose of pacritinib.
# [1] = phase 1, all patients n = 43, Grade 1/2
# [2] = phase 1, all patients n = 43, Grade 3/4
structure (smiles),measurement,setting,value
"C1=C/COCc2cc(ccc2OCCN2CCCC2)Nc2nccc(n2)-c2cccc(c2)COC/1 [pacritinib, 11-(2-pyrrolidin-1-yl-ethoxy)-14,19-dioxa-5,7,26-triaza-tetracyclo[19.3.1.1(2,6). 1(8,12)]heptacosa-1(25),2(26),3,5,8,10,12(27),16,21,23-decaene]",Treatment-emergent AE: Any AE,[1],8 (18.6) n (%)
same,Treatment-emergent AE: Asthenia,[1],6 (14.0) n (%)
same,Treatment-emergent AE: Back pain,[1],7 (16.3) n (%)
same,Treatment-emergent AE: Cardiac murmur,[1],6 (14.0) n (%)
same,Treatment-emergent AE: Chills,[1],5 (11.6) n (%)
same,Treatment-emergent AE: Constipation,[1],11 (25.6) n (%)
same,Treatment-emergent AE: Cough,[1],5 (11.6) n (%)
same,Treatment-emergent AE: Decreased appetite,[1],8 (18.6) n (%)
same,Treatment-emergent AE: Dehydration,[1],5 (11.6) n (%)
same,Treatment-emergent AE: Diarrhea,[1],28 (65.1) n (%)
same,Treatment-emergent AE: Dizziness,[1],6 (14.0) n (%)
same,Treatment-emergent AE: Dyspnea,[1],9 (20.9) n (%)
same,Treatment-emergent AE: Edema peripheral,[1],10 (23.3) n (%)
same,Treatment-emergent AE: Epistaxis,[1],7 (16.3) n (%)
same,Treatment-emergent AE: Fatigue,[1],9 (20.9) n (%)
same,Treatment-emergent AE: Hyperbilirubinemia,[1],5 (11.6) n (%)
same,Treatment-emergent AE: Hyperuricemia,[1],5 (11.6) n (%)
same,Treatment-emergent AE: Insomnia,[1],7 (16.3) n (%)
same,Treatment-emergent AE: Nausea,[1],19 (44.2) n (%)
same,Treatment-emergent AE: Neutropenia,[1],2 (4.7) n (%)
same,Treatment-emergent AE: Night sweats,[1],6 (14.0) n (%)
same,Treatment-emergent AE: Pain in extremity,[1],5 (11.6) n (%)
same,Treatment-emergent AE: Petechiae,[1],5 (11.6) n (%)
same,Treatment-emergent AE: Pyrexia,[1],9 (20.9) n (%)
same,Treatment-emergent AE: Skin lesion,[1],5 (11.6) n (%)
same,Treatment-emergent AE: Thrombocytopenia,[1],2 (4.7) n (%)
same,Treatment-emergent AE: Upper respiratory tract infection,[1],5 (11.6) n (%)
same,Treatment-emergent AE: Vomiting,[1],16 (37.2) n (%)
same,Treatment-emergent AE: Abdominal distension,[2],0 n (%)
same,Treatment-emergent AE: Abdominal pain,[2],1 (2.3) n (%)
same,Treatment-emergent AE: Anemia,[2],7 (16.3) n (%)
same,Treatment-emergent AE: Any AE,[2],35 (81.4) n (%)
same,Treatment-emergent AE: Asthenia,[2],2 (4.7) n (%)
same,Treatment-emergent AE: Back pain,[2],0 n (%)
same,Treatment-emergent AE: Cardiac murmur,[2],0 n (%)
same,Treatment-emergent AE: Chills,[2],0 n (%)
same,Treatment-emergent AE: Constipation,[2],0 n (%)
same,Treatment-emergent AE: Cough,[2],0 n (%)
same,Treatment-emergent AE: Decreased appetite,[2],0 n (%)
same,Treatment-emergent AE: Dehydration,[2],0 n (%)
same,Treatment-emergent AE: Diarrhea,[2],3 (7.0) n (%)
same,Treatment-emergent AE: Dizziness,[2],0 n (%)
same,Treatment-emergent AE: Dyspnea,[2],0 n (%)
same,Treatment-emergent AE: Edema peripheral,[2],2 (4.7) n (%)
same,Treatment-emergent AE: Epistaxis,[2],1 (2.3) n (%)
same,Treatment-emergent AE: Fatigue,[2],4 (9.3) n (%)
same,Treatment-emergent AE: Hyperbilirubinemia,[2],0 n (%)
same,Treatment-emergent AE: Hyperuricemia,[2],1 (2.3) n (%)
same,Treatment-emergent AE: Insomnia,[2],0 n (%)
same,Treatment-emergent AE: Nausea,[2],0 n (%)
same,Treatment-emergent AE: Neutropenia,[2],3 (7.0) n (%)
same,Treatment-emergent AE: Night sweats,[2],0 n (%)
same,Treatment-emergent AE: Pain in extremity,[2],0 n (%)
same,Treatment-emergent AE: Petechiae,[2],0 n (%)
same,Treatment-emergent AE: Pyrexia,[2],3 (7.0) n (%)
same,Treatment-emergent AE: Skin lesion,[2],0 n (%)
same,Treatment-emergent AE: Thrombocytopenia,[2],6 (14.0) n (%)
same,Treatment-emergent AE: Upper respiratory tract infection,[2],0 n (%)
same,Treatment-emergent AE: Vomiting,[2],0 n (%)
same,SAE Management/Outcome,"phase 1, listing per patient and SAE",Fatal; also recorded: Dose not changed; recovered/resolved with sequelae; also recorded: Drug withdrawn; recovered/resolved with sequelae; also recorded: Drug interrupted; recovered/resolved with sequelae
same,Deaths attributed to AEs,"phase 1, n = 43",Seven
same,Discontinuations because of an AE considered treatment related,"phase 1, n = 43",three
same,Dose interruptions due to AEs,"phase 1, n = 43",18 patients
same,Dose reductions due to AEs,"phase 1, n = 43",9 patients
same,Grade 3/4 anemia,"phase 1, n = 43",16.3%
same,Grade 3/4 thrombocytopenia,"phase 1, n = 43",14.0%
same,Grade 3 treatment-related AEs,"phase 1, n = 43",20.9%
same,Grade 4 treatment-related AEs,"phase 1, n = 43",4.7%
same,Patients who died during study participation,"phase 1, n = 43",32.6%
same,Patients who discontinued pacritinib because of an AE,"phase 1, n = 43",Eight
same,Patients with SAEs,"phase 1, n = 43",44.2%
same,Patients with SAEs considered treatment related,"phase 1, n = 43",9.3%
same,Treatment-related AE: diarrhea,"phase 1, n = 43",65.1%
same,Treatment-related AE: nausea,"phase 1, n = 43",34.9%
same,Treatment-related AE: thrombocytopenia,"phase 1, n = 43",11.6%
same,Treatment-related AE: vomiting,"phase 1, n = 43",23.3%
